How the values were obtained:
[1] = Ex vivo elastase degradation assay with VVG staining; parameters: species or system pigs; conditions: MB PDT 20 min irradiance of 150 mW/cm^2, before recombinant elastase; vs Veh only
Experimental: Human and porcine aorta were thawed from −80 C to RT. Tissue was then cut into ~1 cm×1 cm squares and briefly rinsed with HBSS. Tissues were then split into two groups: control and PDT. Control tissues were kept in HBSS at RT for one hour, and treated tissues were subjected to 150 mW NIR light for 20 mins in 100 μg/ml methylene blue, with the lumen side facing the light. Then each group was further split into two groups, no elastase and elastase treatment. Treatment involved a 2 hour incubation at 37 C in 10% Porcine Pancreatic Elastase (E1250-25 MG). After treatment all tissues were briefly rinsed, dried on a paper towel, and frozen in OCT. Tissue was sectioned at 10 μm by cryotome for the cross-section and stained using Van Gieson (Statlab KTVELLT). Images were taken at 20× and 100× on a Keyence BZ-X700 Fluorescence Microscope.
To assess if MB PDT can protect aortic tissue from elastase-induce extracellular matrix degradation, aortic tissue were procured from pigs and subjected to MB PDT (20 min irradiance of 150 mW/cm^2) or Veh only treatment ex vivo before recombinant elastase treatment. Comparative analysis of the cross-sections of these tissues were sought to ascertain the consistency of PDT's protective effects across different biological species. […]

[2] = test system: mouse aneurysms; test: Tissue rigidity assay, mouse aneurysms treated in vivo, stiffness assessed ex vivo; conditions: post-MB PDT in vivo vs vehicle treatment controls
Experimental: (§1) (FIG. 7A). The stiffness maximized at 120 mins exposure for mouse tissue. […] To assess if this benefit of MB PDT on mechanical strength is true in a pathological setting, MB PDT treatment was done of on mouse aneurysms in vivo and the stiffness was assessed ex vivo (FIG. 7C).
(§2) Mouse aneurysms and aortic tissue were treated with MB PDT and vehicle in vivo and ex vivo.

[3] = test system: IL-1B, IL-6 and IL-10; test: Serum cytokine ELISAs after MB PDT; assay type: in vivo, mice; conditions: MB PDT vs controls
Text: The formation and progression of AAA can be characterized by the degradation of the extracellular matrix (ECM) and the concurrent infiltration of immune cells into the aortic wall. To assess if MB PDT affects the extracellular matrix (ECM) of the aortic aneurysms, cross-sections of the aneurysms of the above mice which have undergone AAA induction and concurrently treated with MB PDT and the respective controls were stained with Verhoeff-Van Gieson (VVG) for elastin, Massons Trichrome for collagen and CD3 antibody for T-cells and CD68 antibody for macrophages for immune cell infiltration (FIG. 2A). […] Similarly, a compensatory effect of collagen expression into the elastin layer was observed (pointed by arrows) after PDT treatment compared to both vehicle-treated positive controls and sham controls. […] To assess if T-cells and macrophage infiltration is modulated in aneurysms upon treatment with MB PDT, the aneurysm cross-sections were stained for CD3 and CD68, markers for T-cells and macrophages, respectively. CD3 and CD68 staining were reduced after MB PDT treatment compared to vehicle treated controls (FIG. 2A). […] To assess if this benefit on elastin degradation and immune cell infiltration was due to any systemic decrease in circulating cytokine levels known to be associated with aneurysm growth, cytokines such as IL-1B, IL-6 and IL-10, serum cytokine levels were measured. […]

[4] = test system: total elastin in porcine tissue; test: CML modification levels of total elastin in porcine tissue; conditions: MB PDT vs untreated samples and pentagalloyl glucose; less than glutaraldehyde
[5] = biological target: T1, Recombinant Tropoelastin (Homo sapiens, UniProt P15502); test: CML levels in recombinant tropoelastin treated with MB PDT; assay type: biochemical; conditions: MB PDT vs untreated tropoelastin and methylene blue without light
T1 sequence (P15502 27-786): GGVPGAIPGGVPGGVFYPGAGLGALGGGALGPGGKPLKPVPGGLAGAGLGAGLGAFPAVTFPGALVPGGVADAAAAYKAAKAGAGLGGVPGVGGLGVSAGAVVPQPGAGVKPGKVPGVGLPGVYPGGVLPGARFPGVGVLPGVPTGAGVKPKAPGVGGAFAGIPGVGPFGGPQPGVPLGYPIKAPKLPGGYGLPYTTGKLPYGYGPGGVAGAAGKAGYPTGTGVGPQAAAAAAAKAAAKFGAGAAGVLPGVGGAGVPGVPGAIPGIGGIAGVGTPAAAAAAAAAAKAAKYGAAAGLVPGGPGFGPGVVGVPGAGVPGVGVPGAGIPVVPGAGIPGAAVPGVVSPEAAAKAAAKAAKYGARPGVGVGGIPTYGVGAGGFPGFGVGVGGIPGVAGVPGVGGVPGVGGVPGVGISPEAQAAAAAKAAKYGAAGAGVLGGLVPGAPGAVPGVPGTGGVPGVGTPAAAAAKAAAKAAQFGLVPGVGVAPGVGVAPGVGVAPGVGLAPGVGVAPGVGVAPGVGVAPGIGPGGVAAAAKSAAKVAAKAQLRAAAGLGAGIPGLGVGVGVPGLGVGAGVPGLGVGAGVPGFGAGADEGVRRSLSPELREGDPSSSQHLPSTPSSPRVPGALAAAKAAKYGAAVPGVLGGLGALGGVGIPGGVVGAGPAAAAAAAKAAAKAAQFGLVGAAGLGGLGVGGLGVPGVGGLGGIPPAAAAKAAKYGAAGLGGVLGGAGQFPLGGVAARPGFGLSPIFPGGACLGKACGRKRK

[6] = test system: established AAAs; test: MB PDT on pre-established and progressive aneurysms 21 days after induction surgery; assay type: in vivo, mice
Experimental: The photosensitizer dye methylene blue (M291-100) was used for photodynamic therapy treatment (MB-PDT). MB-PDT was applied at two time points during the experiment. To test the effect of MB-PDT on AAA formation, MB-PDT was done directly after the PPE saline wash (PODO). To investigate the effect of MB-PDT on AAA growth, Laparotomy and MB-PDT was performed 21 days postoperatively, covering the whole aneurysm (POD21). MB-PDT involves applying 10 ul of 10:1 MB Solution in DPBS (M291-100:21-030-CV) topically to the whole aneurysm, which was carefully dissected from surrounding tissue. Gauze was placed on either side of the aneurysm to absorb excess MB. The aneurysm was then irradiated for 25 min at an irradiance of 30 mW/cm^2 and fluence of 45 J/cm^2 (660 nm LED, Thor M660L4). Throughout the course of irradiation, 5 ul of MB was applied to the aneurysm every 2.5 min to prevent the tissue from drying out. After irradiation, the MB was washed with two changes of sterile saline. For the MB only group, the total amount of MB was applied topically to the aneurysm for five minutes and washed. For the light only group, the aneurysm was irradiated for 25 min, with 5 ul of sterile saline applied every 2.5 min to prevent tissue desiccation. For POD21 positive controls, a laparotomy was performed with no additional treatment.
Aneurysm size was tracked by weekly ultrasound surveillance.
In certain instances, AAA often goes undiagnosed or is diagnosed late, thus it is important to know if MB PDT can not only prevent AAA formation but also reduce or arrest progressive aneurysm growth. To evaluate the efficacy of MB PDT to inhibit the progression of AAA, MB PDT was administered to mice with pre-established and progressive aneurysms 21 days after the initial aneurysm induction surgery with elastase. […] Similar to the measurements done in the study of MB PDT upon AAA induction in FIG. 1, the maximum aortic diameters were measured using ultrasound, averaging anterior-posterior (AP) and transverse (TRV) dimensions for accuracy. […]

[7] = test system: aortic aneurysm cross-sections; test: Histology and IHC staining of aneurysm cross-sections after MB PDT at AAA induction; assay type: in vivo, mice
Text: The formation and progression of AAA can be characterized by the degradation of the extracellular matrix (ECM) and the concurrent infiltration of immune cells into the aortic wall. To assess if MB PDT affects the extracellular matrix (ECM) of the aortic aneurysms, cross-sections of the aneurysms of the above mice which have undergone AAA induction and concurrently treated with MB PDT and the respective controls were stained with Verhoeff-Van Gieson (VVG) for elastin, Massons Trichrome for collagen and CD3 antibody for T-cells and CD68 antibody for macrophages for immune cell infiltration (FIG. 2A). […] Similarly, a compensatory effect of collagen expression into the elastin layer was observed (pointed by arrows) after PDT treatment compared to both vehicle-treated positive controls and sham controls. […] To assess if T-cells and macrophage infiltration is modulated in aneurysms upon treatment with MB PDT, the aneurysm cross-sections were stained for CD3 and CD68, markers for T-cells and macrophages, respectively. CD3 and CD68 staining were reduced after MB PDT treatment compared to vehicle treated controls (FIG. 2A). […] To confirm if there is an improvement in elastin degradation, clinical scoring as per an established protocol was performed by blinded investigators. […] To assess if this benefit on elastin degradation and immune cell infiltration was due to any systemic decrease in circulating cytokine levels known to be associated with aneurysm growth, cytokines such as IL-1B, IL-6 and IL-10, serum cytokine levels were measured.
Fresh tissue was fixed in 10% neutral buffered formalin (Azer Scientific, PFNBF-90) for 24 hours before being transferred to 70% EtOH. […] After paraffin embedding, sections were cut at 5 um for staining (AML Laboratories). Sections were then stained with H&E (VWR 95057-844, 95057-848), Van Gieson (Statlab Medical Products, KTVELLT), and Masson's Trichrome (CP Lab Chemicals, TRM-500). For IHC, standard immunohistochemistry procedures for 5 μm-thick aorta sections were used. In brief, after deparaffinization, endogenous peroxidase activity was quenched by placing the slides into 3% hydrogen peroxide (H2O2) for 10 min. Sections were immersed in preheated 10 mM citric acid (VWR., Radnor, PA., USA), pH 6.0, for 30 min and cooled in cold water. Sections were then blocked in 5% goat serum (Vector Laboratories, Burlingame, Calif., USA) for 20 min before being incubated overnight at 4° C. in a solution of rabbit anti-CD3 (0.4 μg/ml; ab5690; Abcam, Cambridge, MA., USA) antibody, rabbit anti-CD31 (ERP1729; 0.4 μg/ml; ab182981; Abcam) antibody, rabbit alpha smooth muscle Actin (SMA; 0.067 μg/ml; ab5694; Abcam), rabbit anti-CD68 (ERP23917; 2.0 μg/ml; ab283667; Abcam), and rabbit anti-Interleukin-1 receptor type 1 (IL1R1; 2.0 μg/ml; PAS-98766; Thermo Fisher, Eugene, OR., USA) in PBS. The next day, the sections were exposed to the biotinylated biotinylated goat-anti-rabbit IgG secondary antibody (15 μg/ml; Vector Laboratories) in PBS for 1 h followed by avidin-biotin complex for 1 h (1:200, ABC; Vector Laboratories). The reactions were visualized with 3,3′-diaminobenzidine (Millipore-Sigma) for 10 min and counterstained with Gill's Haematoxylin (Thermo Scientific) for 30 seconds. Finally, the sections were dehydrated, cleared in xylene and cover slipped. […]
For quantification of elastin using Van Gieson, an elastin scoring guide was used. […]

[8] = Tissue rigidity assay, porcine aorta ex vivo
[9] = Tissue rigidity assay (forceps test), healthy mouse aortic tissue ex vivo; parameters: species or system mice; conditions: MB PDT ex vivo
Experimental: as §1, §2

[10] = after MB PDT vs vehicle treated controls

In the case of `CN(C)c1ccc2nc3ccc(N(C)C)cc3[s+]c2c1` [MB, methylene blue], the “resistance to elastase-induced ECM degradation (VVG elastin staining)” value [1] was “significant resistance”, the “stiffness of the aneurysm” value [2] was “clear improvement” and the “serum cytokine levels (IL-1B, IL-6, IL-10)” value [3] was “No significant differences”. The CML modification levels [4] was “significant increase”, the CML levels [5] was “significant increase” and the “aneurysm diameter on week 9” value ([6]; MB PDT on day 21, vs vehicle treated group) was “decrease”. The “enlargement of established AAAs (weekly ultrasound)” value ([6]; MB PDT on day 21 post-induction, vs vehicle-treated controls) was “significantly reduced”, the “morphological images and micrometric measurements of AAAs” value ([6]; treated vs vehicle) was “marked differences” and the “elastin degradation, clinical scoring by blinded investigators” value ([7]; MB PDT treated group) was “trend towards improvement”. For the same molecule, the “CD3 staining (T-cells)” value [7, 10] was “reduced”, the “CD68 staining (macrophages)” value [7, 10] was “reduced” and the “elastin degradation (VVG staining)” value [7, 10] was “reduction of elastin degradation”. The “collagen degradation in the adventitia (Massons Trichrome)” value ([7]; after PDT vs vehicle treated controls and sham mice) was “less collagen degradation”, the “stiffness benefit in porcine aorta” value ([8]; MB PDT, exposure requirement higher, visually less striking) was “consistent” and the “degradation on incubation with recombinant elastase” value ([8]; porcine aorta after MB PDT, more resistance at higher light intensity (60 mW versus 120 mW)) was “resistant to degradation”. For the same molecule, the “light exposure at which stiffness maximized” value [9] was 120 min and the “vascular stiffness (forceps test)” value [9] was “increased with duration of light exposure”.

Source: US20260232817A1, “Activatable Drug Conjugates and Therapeutic Applications Thereof” (California Institute of Technology, priority 2023, published 2026)
